Laboratory results published in article doi:10.1101/2024.09.04.611242v3 (bioRxiv, 2024).

Tests used:
PC12 cells [1] = experiment: Toxicity of shuttles on PC12 cells; assay type: cell-based; conditions: 5 x 10^4 PC12 cells, 24h, 100% DMEM media
Selective Cu = assay type: binding; conditions: for Average half-time of Cu(II) withdrawal, Cu(II), D/F / Average half-time of Cu(II) withdrawal, Cu(II), DMEM 10%: Cu(II) alone, Cu(II)=shuttle=5 µM, 25°C, NBD emission at 545 nm, n=3; for Average half-time of Cu(II) withdrawal, Cu(II), D/F: D/F 100%; for Cu(II) withdrawn from D/F media over the measurement duration: D/F media spiked with 5 µM Cu(II), shuttle 5 µM, NBD emission followed for 5h
Cu(II)Aβ1-16 = Cu(II)Aβ1-16 (Homo sapiens, UniProt P05067); experiment: Retrieval of Cu; assay type: binding; conditions: 25°C; for time to complete retrieval of Cu(II) from Aβ1-16: HEPES buffer / 10% DMEM, shuttle 5 µM, Aβ1-16 10 µM, Cu(II) 5 µM; for Kinetics of Cu(II) transfer from Aß1-16 to shuttle, DMEM 10%: shuttle=Cu(II)=5 µM, Aß1-16=10 µM, 10% DMEM, NBD emission 545 nm, n=3
[2] = Reduction/release of shuttle-bound Cu; assay type: physicochemical; conditions: 5 mM GSH, HEPES 100 mM pH 7.4
PC12 cells [3] = experiment: Rescue of PC12 cells from Cu; assay type: cell-based; conditions: 5 µM shuttle, 10 µM Cu(II)Aβ1-16 0.5:1, AscH-, 10% DMEM, 24h, MTT, n=3
microglial cells in OHSC = experiment: Microglia proliferation and activation in OHSC; assay type: cell-based, CD1 mice; conditions: 10 µM Cu(II)=shuttle, 20 µM Aβ1-40/42, 48h, Iba1 staining, n=3

With `CN=C([S-])N/N=C/C=N/NC([S-])=NC.[Cu+2]` [Cu(II)GTSM] as the molecule, how does the “toxicity to PC12 cells (in words)” value (PC12 cells [1]) read?
The value was “toxic to PC12 cells”.

Which “Average half-time of Cu(II) withdrawal, Cu(II), D/F” value (Selective Cu) does the source give for “H2N-His-Dap-His-αR5W4^NBD [HDapH-αR5W4^NBD]” here?
The value was under 1 min.

What about the “Average half-time of Cu(II) withdrawal, Cu(II), DMEM 10%” value (Selective Cu) of the same molecule?
The value was under 1 min.

And the “Cu(II) withdrawn from D/F media over the measurement duration” value (Selective Cu)?
Its value is “completely withdrew”.

What about the “time to complete retrieval of Cu(II) from Aβ1-16” value (Cu(II)Aβ1-16) of the same molecule?
The value was “less than two minutes”.

What about the “Kinetics of Cu(II) transfer from Aß1-16 to shuttle, DMEM 10%” value (Cu(II)Aβ1-16) of the same molecule?
Its value is 14.5 ± 3.8 s.

What about the “half-time of reduction of shuttle-bound Cu(II) by GSH (in words)” value [2] of the same molecule?
The value was “only a few minutes”.

What about the “rescue of Cu(II)Aβ1-16-induced toxicity in PC12 cells” value (PC12 cells [3]) of the same molecule?
The value was “reversed”.

And the “effect on Cu(II)(Aβ1-40/42)-induced microglial cell proliferation in OHSC” value (microglial cells in OHSC)?
Its value is “reduced microglial cell proliferation”.

For `CNC(=S)NN=CC=NNC(=S)NC` [GTSM, glyoxal-bis(4-methylthiosemicarbazonato)], which “toxicity to PC12 cells (in words)” value (PC12 cells [1]) is on record?
Its value is “toxic at nanomolar concentration”.

Which “Average half-time of Cu(II) withdrawal, Cu(II), D/F” value (Selective Cu) does the source give for “H2N-Dap-His-His-αR5W4^NBD [DapHH-αR5W4^NBD]” here?
Its value is 4.3 ± 0.6 min.

And the “Average half-time of Cu(II) withdrawal, Cu(II), DMEM 10%” value (Selective Cu)?
The value was under 1 min.

What about the “Cu(II) withdrawn from D/F media over the measurement duration” value (Selective Cu) of the same molecule?
Its value is over 80%.

And the “time to complete retrieval of Cu(II) from Aβ1-16” value (Cu(II)Aβ1-16)?
Its value is “less than two minutes”.

What about the “Kinetics of Cu(II) transfer from Aß1-16 to shuttle, DMEM 10%” value (Cu(II)Aβ1-16) of the same molecule?
Its value is 47.9 ± 9.2 s.

And the “half-time of reduction of shuttle-bound Cu(II) by GSH (in words)” value [2]?
Its value is “only a few minutes”.

What about the “rescue of Cu(II)Aβ1-16-induced toxicity in PC12 cells” value (PC12 cells [3]) of the same molecule?
The value was “reversed”.

What about the “effect on Cu(II)(Aβ1-40/42)-induced microglial cell proliferation in OHSC” value (microglial cells in OHSC) of the same molecule?
Its value is “reduced microglial cell proliferation”.
